Laboratory results published in patent publication US9884806B2, “Cyclic vinylogous amides as bromodomain inhibitors” (ICAHN SCHOOL OF MEDICINE AT MOUNT SINAI, priority 2013, dated 2018).
Where two headings read alike, the source gives them in different places.

Tests used:
[1] = target: T1, first bromodomain (BrD1) of human BRD4 (Homo sapiens, UniProt O60885); experiment: Fluorescence anisotropy binding assay (competition with FITC-labeled MS417 probe); settings: FITC-MS417 probe 80 nM, PBS pH 7.4, 1 hour, 25° C., read-out: BRD4_1 IC50
T1 construct: the first bromodomain (BrD1) of human BRD4; poly-His (cleaved yes); made in house
Outline: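 Competitive fluorescence anisotropy in PBS pH 7.4: 80 nM FITC-MS417 probe, 0.25 to 1 μM tag-cleaved BrD1, titrated unlabeled ligand, 1 hour at 25° C. IC50 values were fitted and converted to Ki using a corrected Cheng-Prusoff equation assuming one-site competition.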

[2] = system: IL-6 secretion in RAW264.7 cells; experiment: LPS-induced IL-6 secretion in murine macrophage RAW264.7 cells (ELISA); assay type: cell-based; settings: LPS 1 μg/ml, 24 hours, mouse IL-6 ELISA
Method: LPS-Induced IL-6Secretion In Murine Macrophage Raw264.7 Cells RAW264.7 cells were cultivated in Dulbecco's modified Eagle medium (DMEM) (Hyclone, Logan, Utah) supplemented with 10% FBS (fetal bovine serum) (Hyclone, Logan, Utah) at 37° C. in a humidified atmosphere of 5% CO2. Cells in 96-well plates (0.1 ml, 3×10^5 cells/ml) were treated with the test compounds. After 30 min, all supernatants were removed and cells were treated with LPS (lipopolysaccharide) (1 μg/ml) (Sigma-Aldrich Chemical Co., St. Louis, Mo.) and compounds. After 24 hours, the supernatant was collected and mouse IL-6 protein level was measured using ELISA (enzyme-linked immunosorbent assay) (Thermo Scientific, Pittsburgh, Pa.). The compounds dissolved in DMSO were diluted with culture medium to concentrations from 0.28 to 50,000 nM. The final concentration of DMSO was adjusted to 0.05% (v/v). The assay was measured by an absorption reading at 570 nm using EnVison 2104 Multilabel Reader (PerkinElmer, Inc., Waltham, Mass.). Each experiment was performed at least in triplicate, and plotted using Prim, and an IC50 value was calculated.

[3] = system: mRNA transcript levels of cytokines IL-6, IL-1β and TNFα in RAW264.7 cells; experiment: LPS-induced transcriptional activation of cytokines in murine macrophage cells (quantitative PCR); assay type: cell-based; settings: Mus musculus
Method: LPS-Induced Transcriptional Activation of Cytokines in Murine Macrophage Cells RAW264.7 cells were cultivated with or without a treatment of the compounds as described above. Total RNA was isolated the cells using TRIzol reagent (Gibco, Grand Island, N.Y.) for homogenization. The concentration and integrity of RNA were determined by measuring absorbance at a 260 nm/280 nm ratio. Quantitative PCR was performed to determine the mRNA transcript levels of cytokines IL-6, IL-1β and TNFα with specific primers for these target genes. Each experiment was performed at least in triplicate, and plotted using Prim, and an IC50 value was calculated.

[4] = system: NO release in RAW264.7 cells; experiment: LPS-stimulated nitric oxide (NO) release in murine macrophage RAW264.7 cells (Griess reaction); assay type: cell-based; settings: Mus musculus; RAW264.7 cells, LPS 1 μg/ml, 24 hours, nitrite by Griess reaction; read-out: IC50 in inhibition of LPS-induced NO release
Method: LPS-Stimulated Nitric Oxide (NO) Release in Murine Macrophage RAW264.7 Cells
RAW264.7 cells was cultivated in DMEM supplemented with 10% FBS at 37° C. in a humidified atmosphere of 5% CO2. Cells in 96-well plates (0.1 ml, 3×10^5 cells/ml) were treated with the test compounds. After 30 min, all supernatants were removed and cells were treated with LPS (1 μg/ml) and the test compounds. After 24 hours, the level of nitrite was measured using Griess reaction G2930 (Promega Corp., Madison, Wis.) [see Bredt and Snyder, Ann Rev Biochem 63, 175-195 (1994)]. The test compounds dissolved in DMSO were diluted with culture medium to concentrations from 0.28 to 50,000 nM. The final concentration of DMSO was adjusted to 0.05% (v/v). The nitrite production was measured by spectrophotometry at 520 nm using EnVison 2104 Multilabel Reader (PerkinElmer, Inc., Waltham, Mass.). Each experiment was performed at least in triplicate and plotted using Prism.

[5] = system: T-cell-transfer colitis model in Rag1−/− mice; experiment: T-cell-transfer colitis study and histopathology; assay type: in vivo
Text: FIG. 1 is a graph of body weight as percent change from baseline vs time (in weeks) for treated and untreated mice in which inflammatory colitis has been induced.
FIG. 2 is a gray-scale rendering of a photograph showing the gross morphology of the intestines for treated and untreated mice in which inflammatory colitis has been induced compared to a normal (control) intestine.
T-Cell-Transfer Colitis Study and Histopathology
After 5-7 weeks, mice were killed and colon tissues were excised. Tissues were fixed in 10% buffered formalin and paraffin embedded. The sections (5 μm) of tissue samples stained with hematoxylin and eosin. All the slides were read and scored by an experienced pathologist without previous knowledge of the type of treatment. The degree of inflammation in the epithelium, submucosa and muscularis propria was scored separately.

[6] = target: T2, BRD4_2 (Homo sapiens, UniProt O60885); experiment: Fluorescence anisotropy binding assay (competition with FITC-labeled MS417 probe), BRD4_2; settings: FITC-MS417 probe 80 nM, PBS pH 7.4, 1 hour, 25° C.
T2 construct: contains two tandem bromodomains (BrD1 and BrD2)

[7] = system: HIV-1 transgenic mice; settings: model for HIV-associated nephropathy; cited from earlier work

Row | Structure (SMILES) | IC50 [1] | IC50 [2] | IC50 ([3]; RAW264.7 cells, LPS, quantitative PCR of mRNA transcript levels, read-out: IC50 in inhibition of transcriptional activation of the cytokines IL-6, IL-1β and TNFα) | IC50 [4] | development of colitis ([5]; CD4+CD45RBhi T cells injected intra-peritoneally into Rag1−/− mice) | gross morphology of the intestines ([5]; after 5-7 weeks, FIG. 2, treated mice vs disease group) | loss of body weight ([5]; mice weighed every week, FIG. 1) | IC50 [6] | IC50 ([3]; RAW264.7, read-out: IC50 in inhibition of transcriptional activation of the cytokines IL-6, IL-1β and TNFα) | inflammation and kidney injury [7]
1 | COc1ccc(NC(=O)c2ccc(NC3=C(C)C(=O)CC3)c(Cl)c2)cc1 [Example 04-19, 3-chloro-N-(4-methoxyphenyl)-4-((2-methyl-3-oxocyclopent-1-en-1-yl)amino)benzamide] | < 1000 nM | 200 to 1000 nM | 100 to 5000 nM | 100 to 5000 nM | inhibits the development of colitis | gross morphology of the intestines is preserved | significantly (P<0.05) inhibits the loss of body weight | 1000 to 10000 nM |  | 
2 | CC1=C(Nc2ccc(C(=O)Nc3ccccc3C)cc2Cl)CCC1=O [Example 04-20, 3-chloro-4-((2-methyl-3-oxocyclopent-1-en-1-yl)amino)-N-(o-tolyl)benzamide] | < 1000 nM | 200 to 1000 nM |  | 100 to 5000 nM |  |  |  | 1000 to 10000 nM | 100 to 5000 nM | 
3 | COC(=O)C[C@@H]1N=C(c2ccc(Cl)cc2)c2c(sc(C)c2C)-n2c(C)nnc21 [MS417] |  |  |  |  |  |  |  |  |  | effectively ameliorated inflammation and kidney injury
